Assay results from PubChem BioAssay (NCI).
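Following 48 hours of exposure in 96-well plates, responses at five concentrations were used to interpolate endpoints linearly. At the GI50, growth is halved. TGI marks complete inhibition of growth.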

Tests used:
Experiment in all cases: DTP human tumour cell line panel, 48 h
[1] = tested on: EKVX NSCLC
[2] = tested on: CAKI-1 renal
[3] = tested on: HT29 colon
[4] = tested on: HOP-62 NSCLC
[5] = tested on: DU-145 prostate
[6] = tested on: BT-549 breast
[7] = tested on: PC-3 prostate
[8] = tested on: KM12 colon
[9] = tested on: TK-10 renal
[10] = tested on: NCI-H226 lung

COc1ccc(/C=C\c2cc(OC)c(OC)c(OC)c2)cc1OCC(=O)Nc1nc2ccccc2s1
GI50 [1]: 3.65 µM
TGI [1]: > 100 µM
GI50 [2]: 0.309 µM
TGI [2]: > 35.8 µM
GI50 [3]: 2.72 µM
TGI [3]: > 48.9 µM
GI50 [4]: 0.298 µM
TGI [4]: > 100 µM
GI50 [5]: 0.14 µM
TGI [5]: > 100 µM
GI50 [6]: 0.303 µM
TGI [6]: > 100 µM
GI50 [7]: 0.183 µM
TGI [7]: > 100 µM
GI50 [8]: 0.0646 µM
TGI [8]: > 100 µM

COc1ccc(-c2nnc(SCC(=O)Nc3ccc(C(=O)/C=C/c4cc(OC)c(OC)c(OC)c4)cc3)n2-c2ccccc2)cc1OC
GI50 [2]: 8.57 µM
TGI [2]: > 10 µM
GI50 [3]: 2.07 µM
TGI [3]: > 10 µM
GI50 [4]: 8.52 µM
TGI [4]: > 10 µM
GI50 [5]: 3.86 µM
TGI [5]: > 10 µM
GI50 [6]: 1.98 µM
TGI [6]: 7.99 µM
GI50 [7]: 6.89 µM
TGI [7]: > 10 µM
GI50 [9]: > 10 µM
TGI [9]: > 10 µM
GI50 [10]: 2.29 µM
TGI [10]: 8.06 µM
GI50 [8]: 2.38 µM
TGI [8]: > 10 µM

CCOc1ccc(NCC2CC/C(=C\c3ccc(Cl)cc3)C2=O)cc1 (stereo not drawn)
TGI [1]: > 73.8 µM
TGI [2]: > 73.8 µM
TGI [3]: > 56.2 µM
TGI [4]: > 100 µM
TGI [9]: > 65.6 µM
TGI [10]: > 100 µM
TGI [8]: > 44 µM

O=C1c2cccc3c(Cl)ccc(c23)C(=O)N1CCCN1CCN(CCCN2C(=O)c3cccc4c(Cl)ccc(c34)C2=O)CC1
TGI [1]: > 100 µM
TGI [2]: > 100 µM
TGI [3]: > 100 µM
TGI [4]: > 100 µM
TGI [9]: > 100 µM
TGI [10]: > 100 µM
TGI [8]: > 100 µM

CCC(C)c1cccc(C)c1NC(=O)C(=O)Cc1nc2ccccc2s1 (stereo not drawn)
TGI [1]: > 100 µM
TGI [2]: > 100 µM
TGI [3]: > 100 µM
TGI [4]: > 100 µM
TGI [9]: > 100 µM
TGI [8]: > 100 µM

O=C1CCCC(O)=C1SC1=C(O)CCCC1=O
TGI [1]: > 100 µM
TGI [2]: > 100 µM
TGI [3]: > 100 µM
TGI [9]: > 100 µM
TGI [10]: > 100 µM
TGI [8]: > 100 µM

O=C1CCNC(=O)NC1
TGI [1]: > 100 µM
TGI [2]: > 100 µM
TGI [3]: > 100 µM
TGI [4]: > 100 µM
TGI [9]: > 100 µM
TGI [10]: > 100 µM
TGI [8]: > 100 µM

Cc1cc(NCc2cc(Nc3ccnc4cc(Cl)ccc34)ccc2F)nc(N2CCSCC2)n1
GI50 [1]: 2.8 µM
TGI [1]: 83.9 µM
GI50 [2]: 1.51 µM
TGI [2]: 3.19 µM
GI50 [3]: 1.77 µM
TGI [3]: 4.37 µM
GI50 [4]: 1.89 µM
TGI [4]: 5.64 µM
GI50 [5]: 3.31 µM
TGI [5]: 15.7 µM
GI50 [7]: 1.5 µM
TGI [7]: 4.35 µM
GI50 [9]: 1.92 µM
TGI [9]: 4.68 µM
GI50 [10]: 2.71 µM
TGI [10]: 12.1 µM

NC(CCc1ncc(-c2ccccc2)s1)C(=O)O (stereo not drawn)
TGI [1]: > 100 µM
TGI [2]: > 100 µM
TGI [3]: > 100 µM
TGI [9]: > 100 µM
TGI [10]: > 100 µM
TGI [8]: > 100 µM

COc1ccc(C(=O)/C=C/c2cc(-c3ccc4c(c3)OCO4)n[nH]2)cc1OC
GI50 [2]: 1.9 µM
TGI [2]: 4.33 µM
GI50 [3]: 2.98 µM
TGI [3]: 11.3 µM
GI50 [4]: 2.08 µM
TGI [4]: 5.6 µM
GI50 [5]: 1.87 µM
TGI [5]: 4.27 µM
GI50 [6]: 1.97 µM
TGI [6]: 4.21 µM
GI50 [7]: 2.58 µM
TGI [7]: 18.2 µM
GI50 [9]: 2.88 µM
TGI [9]: 8.97 µM
GI50 [10]: 3.4 µM
TGI [10]: 11.2 µM
GI50 [8]: 2.86 µM
TGI [8]: 9.48 µM

CNc1ccc([N+](=O)[O-])c2c(NCCCN(C)C)ccnc12
TGI [1]: > 100 µM
TGI [2]: > 100 µM
TGI [3]: > 100 µM
TGI [4]: > 100 µM
TGI [9]: > 100 µM
TGI [10]: > 100 µM
TGI [8]: > 100 µM

CN(C(=O)C12C3C4C1C1C2C3C41C(O)C(C)(C)C)C(C)(C)C (stereo not drawn)
TGI [1]: > 100 µM
TGI [2]: > 100 µM
TGI [3]: > 100 µM
TGI [4]: > 100 µM
TGI [9]: > 100 µM
TGI [10]: > 100 µM
TGI [8]: > 100 µM

CC[C@H]1CN(C)[C@H]2Cc3c([nH]c4ccccc34)C(=O)C[C@H]1C2C(=O)OC (stereo partly drawn)
TGI [1]: > 100 µM
TGI [3]: > 100 µM
TGI [4]: > 100 µM
TGI [5]: > 100 µM
TGI [6]: > 100 µM
TGI [7]: > 100 µM
TGI [9]: > 100 µM
TGI [10]: > 100 µM
TGI [8]: > 100 µM

CC(O)C(NC(=O)c1ccccc1)C(=O)N(Cc1ccccc1)Cc1ccccc1 (stereo not drawn)
TGI [1]: > 100 µM
TGI [2]: 49.9 µM
TGI [4]: > 100 µM
TGI [9]: > 100 µM
TGI [10]: > 100 µM
TGI [8]: > 100 µM

CCOC(=O)c1ccc(N(C=O)CCC(=O)CCl)cc1
GI50 [2]: 0.528 µM
TGI [2]: 2.05 µM
GI50 [3]: 0.186 µM
TGI [3]: 1.18 µM
GI50 [4]: 0.485 µM
TGI [4]: 13.4 µM
GI50 [5]: 0.366 µM
TGI [5]: 13.9 µM
GI50 [6]: 0.0588 µM
TGI [6]: 0.884 µM
GI50 [7]: 0.401 µM
TGI [7]: 14.8 µM
GI50 [9]: 1.78 µM
TGI [9]: 7.03 µM
GI50 [10]: 0.297 µM
TGI [10]: 1.36 µM
GI50 [8]: 0.4 µM
TGI [8]: 15.4 µM

Cc1cccc(C(C)C)c1NC(=O)CCl
TGI [1]: 53.2 µM
TGI [2]: 91.7 µM
TGI [3]: > 100 µM
TGI [4]: 98.8 µM
TGI [10]: > 100 µM
TGI [8]: > 100 µM

O=C(O)c1cn(C2CC2)c2cc(N3CCNCC3)c(F)cc2c1=O
GI50 [2]: > 100 µM
TGI [2]: > 100 µM
GI50 [3]: > 100 µM
TGI [3]: > 100 µM
GI50 [4]: > 100 µM
TGI [4]: > 100 µM
GI50 [5]: > 100 µM
TGI [5]: > 100 µM
GI50 [6]: > 100 µM
TGI [6]: > 100 µM
GI50 [7]: > 100 µM
TGI [7]: > 100 µM
GI50 [9]: > 100 µM
TGI [9]: > 100 µM
GI50 [10]: > 100 µM
TGI [10]: > 100 µM
GI50 [8]: > 100 µM
TGI [8]: > 100 µM

CCCC(C)c1c(Cl)nc(Cl)nc1Cl (stereo not drawn)
TGI [1]: 36.9 µM
TGI [3]: 26.5 µM
TGI [4]: 20.6 µM
TGI [5]: 28.3 µM
TGI [6]: 5.16 µM
TGI [7]: 46 µM
TGI [9]: 37.4 µM
TGI [10]: 18.7 µM
TGI [8]: 10.2 µM

O=C(Oc1ccc2c(-c3ccccc3)c(C(=O)Nc3ccc(Cl)cc3)c(=O)oc2c1)c1ccccc1
TGI [1]: > 100 µM
TGI [3]: > 100 µM
TGI [4]: > 100 µM
TGI [9]: > 100 µM
TGI [10]: > 100 µM
TGI [8]: > 100 µM

C=C1CCC2C(C)(CO)C(O)CCC2(C)C1C/C=C1/CCOC1=O (stereo not drawn)
TGI [1]: > 100 µM
TGI [2]: > 100 µM
TGI [3]: > 100 µM
TGI [4]: > 100 µM
TGI [9]: > 100 µM
TGI [10]: > 100 µM
TGI [8]: > 100 µM

Clc1ccc2nc(Cl)c3ccccc3c2c1
GI50 [2]: > 100 µM
TGI [2]: > 100 µM
GI50 [3]: 19.9 µM
TGI [3]: > 100 µM
GI50 [4]: 11.5 µM
TGI [4]: 64.2 µM
GI50 [5]: 58.5 µM
TGI [5]: > 100 µM
GI50 [6]: 36.1 µM
TGI [6]: > 100 µM
GI50 [7]: > 100 µM
TGI [7]: > 100 µM
GI50 [9]: 4.96 µM
TGI [9]: 31.8 µM
GI50 [10]: 14 µM
TGI [10]: > 100 µM
GI50 [8]: 15.4 µM
TGI [8]: > 100 µM
